Test [1] has as its system A375 melanoma cells. The test is described as follows: A375 melanoma xenograft model. The following applies: IRAK-1,-4 inhibitor 35 mg/kg intratumorally, vinblastine 0.25 mg/kg i.p.; control 17 days.
Description: (A-B) NSG mice (n=5) were injected subcutaneously with A375 melanoma cells. When tumors reached a size of approximately 50 mm^2 mice remained untreated or injected intraperitoneally with vinblastine mg/kg; administered every 2 days for 10 days), or peritumorally with IRAK-1,-4 inhibitor (35 mg/kg), or vinblastine plus IRAK.-1,-4 inhibitor. Tumor sizes were calculated by measuring perpendicular by longitudinal diameter;*, P<0.05. Mouse survival data were analyzed using the exact log-rank test;*, P<0.05, **P<0.001.
NOD.Cg-Prkdc^scid Il2rg^tmWJZ; SzJ IL2RG (NSG) mice (Jackson Laboratories, Bar Harbor, Me.) were subcutaneously (s.c.) injected with 2.5×10^6 A375 melanoma cells delivered in PBS. […] When tumors reached a size of approximately 50 mm^2 mice were injected intratumorally (i.t.) with 35 mg/kg of IRAK-1,-4 inhibitor or an equal volume of vehicle (DMSO). Mice were intraperitoneally (i.p.) injected with vinblastine (0.25 mg/kg) every 2 days for 5 days starting on the same day that mice received with IRAK-1,-4 inhibitor. Tumor sizes were analyzed using a mixed model approach for repeated measurements and mouse survival data were analyzed with the exact log-rank test.
Test [2] has as its system A375 melanoma cells. The test is described as follows: Western blot of cleaved PARP and caspase-3. The following applies: single agent alone, 48 hrs, FIG. 8D. It is filed as cell-based, human. Here is the method: FIG. 8. […] (A) A375 and Malme-3M melanoma cells were cultured with or without 2.5 μM of IRAK-1,-4 and in the presence varying concentrations of vinblastine, cisplatin or 5′ Fluorouracil. Forty-eight hours later apoptosis was evaluated by staining cells with annexin-V and propidium iodide and analyzed by flow cytometry. (B) A375 cells were transfected via electroporation with siRNA-IRAK-1,-4. IRAK-1 protein levels were examined by Western blotting. […], A375-psiRNA-hIRAK-1, A375-psiRNA-hIRAK-4, or cells expressing both psiRNA-hIRAK-1 and -4 were cultured in the presence of vinblastine (100 nmol/L) for 48 hours and apoptosis was examined by flow cytometry. (C) A375 melanoma cells were cultured in the presence of vehicle alone (DMSO) or various concentrations of IRAK-1,-4. Forty-eight hours later cell lysates were used to analyze the expression of levels of cleaved PARP or caspase-3 by Western blots. (D) A375 melanoma cells were cultured with or without 2.5 μM of IRAK.-1,-4 and in the presence or absence of vinblastine for 48 hrs. PARP and caspase-3 levels were determined by Western blot.
Total cell extracts were prepared from melanoma cells. […] Melanoma tissue arrays were purchased from US Biomax, Inc (Rockville, Md.). For immunohistochemical staining samples were stained with mouse monoclonal anti-human phosphor-IRAK.-4 antibody (Abnova; dilution, 3.5 μg/ml) or normal mouse serum. Tissue histology sections (5-μm-thick) were deparaffinized, hydrated, heated in boiling 10 mmol/L sodium citrate (pH 6.0), for antigen retrieval, for 30 min and washed in Tris buffer. Peroxide blocking was done with 3% […] in methanol at room temperature for 15 min, followed by 10% fetal bovine serum in TBS-t for 30 min at room temperature. Primary antibody incubation was done overnight at 4° C. Secondary antibody incubation with horse anti-mouse (1:200; Vector Laboratories, Burlingame, Calif.) was done for 1 hr, followed by application of diaminobenzidine chromogen for 5 min. The slides were then counterstained with hematoxylin and topped with a coverslip. IHC specimens were analyzed using “quick score” system in which the intensity of the immunohistochemical reaction was scored by multiplying the intensity 1 (weak), 2 (moderate), and 3 (strong) and the proportion of cells staining positively 0 (<10%), 1 (10-25%), 2 (26-50%), 3 (51-75%) or 4 (>75%).

`CC[C@]1(O)C[C@@H]2CN(CCc3c([nH]c4ccccc34)[C@@](C(=O)OC)(c3cc4c(cc3OC)N(C)[C@H]3[C@@](O)(C(=O)OC)[C@H](OC(C)=O)[C@]5(CC)C=CCN6CC[C@]43[C@@H]65)C2)C1` [vinblastine] displayed a median survival with A375 melanoma cells [1] of 22 days. Also, the “levels of cleaved PARP and caspase-3” value in the test with A375 melanoma cells [2] is reported as “little effect”.

The values above are taken from patent US9464326B2, “Total and phosphorylated IL-1 receptor-associated kinase-1 and IL-1 receptor-associated kinase-4 as a biomarker for cancer progression and chemotherapy resistance” (University of Maryland, Baltimore, priority 2012, dated 2016).
